Test results reported in patent publication US8530650B2, “2, 5-diamino-substituted pyrido [4, 3-D] pyrimidines as autotaxin inhibitors against cancer” (MERCK PATENT GmbH, priority 2008, dated 2013).

Biological target: T1, recombinant autotaxin (Homo sapiens, UniProt Q13822)
T1 construct: made in house; host or cells: Hi5 insect cells (baculovirus)
Experiment: Autotaxin assay (Amplex Red, LPC substrate)
Type: biochemical
Conditions: 75 μM LPC, Amplex Red fluorescence, ten 1:3 dilutions starting at 30 μM
Procedure: Autotaxin activity is measured indirectly by means of Amplex Red Reagent. In this course, Amplex Red is measured as fluorogenic indicator for generated H2O2. Autotaxin converts substrate lysophosphatidylcholine (LPC) to phosphocholine and lysophosphatidylic acid (LPA). After the conversion phosphocholine is reacted with alkaline phosphatase to obtain inorganic phosphate and choline. During the next step choline is oxidized with choline oxidase to yield betaine, whereby H2O2 is generated. H2O2 reacts with Amplex Red Reagent in the presence of peroxidase (Horseradish peroxidase) in an 1:1 stochiometry and yields highly fluorescent resorufin. The generated fluorescence is measured in a reaction-dependent kinetic mode in order to enable subtraction of fluorescence signals of possible other fluorescent compounds that are not part of the reaction from total measured fluorescence.
1.5 μl of a standard solution or of the compounds of the invention are dissolved in 20 mM Hepes pH 7.2 with maximally 7.7% DMSO in individual concentrations. The resulting solution is pre-incubated together with 10 μl (16 ng) of highly purified recombinant autotaxin in a black 384-hole microtiter plate for 30 min at 22° C. Thereafter, the reaction is started through the addition of 5 μL-a-lysophosphatidylcholine (LPC), whereby the final concentration of LPC is 75 μM. The mixture is incubated for 90 min. at 37° C. After the incubation Amplex Red Reagent, peroxidase (Horseradish peroxidase) and choline oxidase are added. The fluorescence is immediately measured at a wavelength of 612 nm with an excitation wavelength of 485 nm in a “Tecan Ultra multimode” fluorescence reader. The activity of autotaxin is indirectly calculated via the amount of detected generated H2O2.
For IC50 analysis, ten serial 1:3 dilutions starting at 30 μM for each compound were run in duplicates.
IC50 values were calculated on normalized data. For normalization, control wells were added to each assay plate and the signal of uninhibited control wells was set to 100%, whereas the signal inhibited by 500 μM C14 LPA, (Avanti Polar Lipids, Cat# 857120P) was set to 0%. Curves were fitted and IC50 values calculated by the following model using proprietary analysis software: Y=Bottom+(100−Bottom)/(1+10^((LogIC50−X)*HillSlope))
Where X is the logarithm of concentration. Y is the response; Y starts at Bottom and goes to Top with a sigmoid shape.
Protein: Recombinant autotaxin (baculoviral Hi5 expression)
Substrate: L-a-lysophosphatidyl choline (chicken egg); Avanti Polar Lipids #830071 P
Standard: C14 LPA, Avanti Polar Lipids, Cat# 857120P
Detection Reagent Amplex Red Reagent; Invitrogen #A12222; dissolved in 1.923 ml of DMSO peroxidase Type VI-A (horseradish), Sigma #P6782; dissolved in 7.45 ml of test buffer, Choline Oxidase; Sigma #C5896; dissolved in 2.47 ml test buffer
Detection Reagent Mix: 1:100 dilution of Amplex Red Regent in test buffer
Test buffer: 200 mM Tris-HCl, Merck, Cat # 1.08219, pH 7.9; 0.1% BSA, lipid free, Roche Cat#775835

Structure (SMILES)	IC50
c1ccc(CNc2ncc3c(N4CCCC4)nccc3n2)cc1 [Compound 1, Benzyl-(5-pyrrolidin-1-yl-pyrido[4,3-d]pyrimidin-2-yl)-amine]	< 30 µM
Fc1ccc(Nc2nccc3nc(NCc4ccccc4)ncc23)cc1 [Compound 2, N2-Benzyl-N5-(4-fluoro-phenyl)-pyrido[4,3-d]pyrimidine-2,5-diamine]	< 30 µM
COc1ccc(Nc2nccc3nc(NCc4ccccc4)ncc23)cc1 [Compound 3, N2-Benzyl-N5-(4-methoxy-phenyl)-pyrido[4,3-d]pyrimidine-2,5-diamine]	< 30 µM
Fc1ccc(Nc2nccc3nc(NCc4ccccc4)ncc23)c(F)c1 [Compound 4, N2-Benzyl-N5-(2,4-difluoro-phenyl)-pyrido[4,3-d]pyrimidine-2,5-diamine]	< 30 µM
c1ccc(CNc2ncc3c(Nc4ccc5c(c4)OCO5)nccc3n2)cc1 [Compound 5, N5-Benzo[1,3]dioxol-5-yl-N2-benzyl-pyrido[4,3-d]pyrimidine-2,5-diamine]	< 30 µM
Cc1cc(F)ccc1Nc1nccc2nc(NCc3ccccc3)ncc12 [Compound 7, N2-Benzyl-N5-(4-fluoro-2-methyl-phenyl)-pyrido[4,3-d]pyrimidine-2,5-diamine]	< 30 µM
Clc1ccccc1CNc1ncc2c(N3CCCC3)nccc2n1 [Compound 8, (2-Chloro-benzyl)-(5-pyrrolidin-1-yl-pyrido[4,3-d]pyrimidin-2-yl)-amine]	< 5 µM
Clc1ccccc1CNc1ncc2c(NCc3ccccc3Cl)nccc2n1 [Compound 10, N2,N5-Bis-(2-chloro-benzyl)-pyrido[4,3-d]pyrimidine-2,5-diamine]	< 30 µM
Clc1ccccc1CNc1ncc2c(NCc3cccnc3)nccc2n1 [Compound 11, N2-(2-Chloro-benzyl)-N5-pyridin-3-ylmethyl-pyrido[4,3-d]pyrimidine-2,5-diamine]	< 30 µM
CC(=O)c1ccc(Nc2nccc3nc(NCc4ccccc4Cl)ncc23)cc1 [Compound 13, 1-{4-[2-(2-Chloro-benzylamino)-pyrido[4,3-d]pyrimidin-5-ylamino]-phenyl}-ethanone]	< 30 µM
CC(C)OCCCNc1nccc2nc(NCc3ccccc3Cl)ncc12 [Compound 15, N2-(2-Chloro-benzyl)-N5-(3-isopropoxy-propyl)-pyrido[4,3-d]pyrimidine-2,5-diamine]	< 30 µM
Clc1ccccc1CNc1ncc2c(NCCCN3CCCCC3)nccc2n1 [Compound 16, N2-(2-Chloro-benzyl)-N5-(3-piperidin-1-yl-propyl)-pyrido[4,3-d]pyrimidine-2,5-diamine]	< 30 µM
Clc1ccccc1CNc1ncc2c(NCCCN3CCCC3)nccc2n1 [Compound 17, N2-(2-Chloro-benzyl)-N5-(3-pyrrolidin-1-yl-propyl)-pyrido[4,3-d]pyrimidine-2,5-diamine]	< 30 µM
Clc1ccccc1CNc1ncc2c(NCCN3CCCCC3)nccc2n1 [Compound 18, N2-(2-Chloro-benzyl)-N5-(2-piperidin-1-yl-ethyl)-pyrido[4,3-d]pyrimidine-2,5-diamine]	< 30 µM
Cc1ccc(CNc2ncc3c(Nc4ccc(F)cc4C)nccc3n2)cc1 [Compound 19, N5-(4-Fluoro-2-methyl-phenyl)-N2-(4-methyl-benzyl)-pyrido[4,3-d]pyrimidine-2,5-diamine]	< 30 µM
Fc1ccc(CNc2ncc3c(N4CCCC4)nccc3n2)cc1 [Compound 20, (4-Fluoro-benzyl)-(5-pyrrolidin-1-yl-pyrido[4,3-d]pyrimidin-2-yl)-amine]	< 30 µM
Fc1ccc(CNc2ncc3c(Nc4ccc(F)cc4)nccc3n2)cc1 [Compound 21, N2-(4-Fluoro-benzyl)-N5-(4-fluoro-phenyl)-pyrido[4,3-d]pyrimidine-2,5-diamine]	< 30 µM
COc1ccc(Nc2nccc3nc(NCc4ccc(F)cc4)ncc23)cc1 [Compound 23, N2-(4-Fluoro-benzyl)-N5-(4-methoxy-phenyl)-pyrido[4,3-d]pyrimidine-2,5-diamine]	< 30 µM
Fc1ccc(CNc2ncc3c(Nc4ccc(F)cc4F)nccc3n2)cc1 [Compound 25, N5-(2,4-Difluoro-phenyl)-N2-(4-fluoro-benzyl)-pyrido[4,3-d]pyrimidine-2,5-diamine]	< 30 µM
Fc1ccc(CNc2ncc3c(Nc4ccc5c(c4)OCO5)nccc3n2)cc1 [Compound 26, N5-Benzo[1,3]dioxol-5-yl-N2-(4-fluoro-benzyl)-pyrido[4,3-d]pyrimidine-2,5-diamine]	< 30 µM
COc1ccc(Nc2nccc3nc(NCc4ccc(F)cc4)ncc23)cc1OC [Compound 27, N5-(3,4-Dimethoxy-phenyl)-N2-(4-fluoro-benzyl)-pyrido[4,3-d]pyrimidine-2,5-diamine]	< 30 µM
Cc1cc(F)ccc1Nc1nccc2nc(NCc3ccc(F)cc3)ncc12 [Compound 28, N2-(4-Fluoro-benzyl)-N5-(4-fluoro-2-methyl-phenyl)-pyrido[4,3-d]pyrimidine-2,5-diamine]	< 30 µM
Fc1ccc(CNc2ncc3c(NCc4ccc5nonc5c4)nccc3n2)cc1 [Compound 29, N5-Benzo[1,2,5]oxadiazol-5-ylmethyl-N2-(4-fluoro-benzyl)-pyrido[4,3-d]pyrimidine-2,5-diamine]	< 30 µM
CC(C)CNc1nccc2nc(NCc3ccc(F)cc3)ncc12 [Compound 30, N2-(4-Fluoro-benzyl)-N5-isobutyl-pyrido[4,3-d]pyrimidine-2,5-diamine]	< 30 µM
COc1ccccc1CNc1ncc2c(N3CCCC3)nccc2n1 [Compound 31, (2-Methoxy-benzyl)-(5-pyrrolidin-1-yl-pyrido[4,3-d]pyrimidin-2-yl)-amine]	< 30 µM

Other lines, results leading:

IC50	Structure (SMILES)
< 30 µM	COc1ccc(Nc2nccc3nc(NCc4ccccc4)ncc23)cc1OC [Compound 6, N2-Benzyl-N5-(3,4-dimethoxy-phenyl)-pyrido[4,3-d]pyrimidine-2,5-diamine]
< 30 µM	COc1ccc(Nc2nccc3nc(NCc4ccccc4Cl)ncc23)cc1 [Compound 9, N2-(2-Chloro-benzyl)-N5-(4-methoxy-phenyl)-pyrido[4,3-d]pyrimidine-2,5-diamine]
< 30 µM	COc1ccc(Nc2nccc3nc(NCc4ccccc4Cl)ncc23)cc1OC [Compound 12, N2-(2-Chloro-benzyl)-N5-(3,4-dimethoxy-phenyl)-pyrido[4,3-d]pyrimidine-2,5-diamine]
< 30 µM	COc1ccc(Nc2nccc3nc(NCc4ccccc4Cl)ncc23)c(OC)c1 [Compound 14, N2-(2-Chloro-benzyl)-N5-(2,4-dimethoxy-phenyl)-pyrido[4,3-d]pyrimidine-2,5-diamine]
< 30 µM	Cc1ccccc1Nc1nccc2nc(NCc3ccc(F)cc3)ncc12 [Compound 22, N2-(4-Fluoro-benzyl)-N5-o-tolyl-pyrido[4,3-d]pyrimidine-2,5-diamine]
< 30 µM	Fc1ccc(CNc2ncc3c(Nc4ccccc4F)nccc3n2)cc1 [Compound 24, N2-(4-Fluoro-benzyl)-N5-(2-fluoro-phenyl)-pyrido[4,3-d]pyrimidine-2,5-diamine]
< 30 µM	CCOc1ccccc1Nc1nccc2nc(NCc3ccccc3OC)ncc12 [Compound 32, N5-(2-Ethoxy-phenyl)-N2-(2-methoxy-benzyl)-pyrido[4,3-d]pyrimidine-2,5-diamine]
< 30 µM	COc1ccccc1CNc1ncc2c(Nc3ccc(F)cc3)nccc2n1 [Compound 33, N5-(4-Fluoro-phenyl)-N2-(2-methoxy-benzyl)-pyrido[4,3-d]pyrimidine-2,5-diamine]
< 30 µM	COc1ccccc1CNc1ncc2c(Nc3ccccc3C)nccc2n1 [Compound 34, N2-(2-Methoxy-benzyl)-N5-o-tolyl-pyrido[4,3-d]pyrimidine-2,5-diamine]
< 30 µM	COc1ccc(Nc2nccc3nc(NCc4ccccc4OC)ncc23)cc1 [Compound 35, N2-(2-Methoxy-benzyl)-N5-(4-methoxy-phenyl)-pyrido[4,3-d]pyrimidine-2,5-diamine]
< 30 µM	COc1ccccc1CNc1ncc2c(Nc3ccc(C)cc3)nccc2n1 [Compound 36, N2-(2-Methoxy-benzyl)-N5-p-tolyl-pyrido[4,3-d]pyrimidine-2,5-diamine]
